This note sets out measurements from patent US20230322770A1, “SUBSTITUTED HETEROARYL COMPOUNDS USEFUL AS INHIBITORS OF TLR9” (BRISTOL-MYERS SQUIBB COMPANY, priority 2020, published 2023).

Common to all, as to type: cell-based
One assay addresses T1, human TLR9 (Homo sapiens, UniProt Q9NR96).
T1 construct: host or cells: HEK-Blue cells (HEK293-derived reporter line)
T1 sequence (Q9NR96 26-1032): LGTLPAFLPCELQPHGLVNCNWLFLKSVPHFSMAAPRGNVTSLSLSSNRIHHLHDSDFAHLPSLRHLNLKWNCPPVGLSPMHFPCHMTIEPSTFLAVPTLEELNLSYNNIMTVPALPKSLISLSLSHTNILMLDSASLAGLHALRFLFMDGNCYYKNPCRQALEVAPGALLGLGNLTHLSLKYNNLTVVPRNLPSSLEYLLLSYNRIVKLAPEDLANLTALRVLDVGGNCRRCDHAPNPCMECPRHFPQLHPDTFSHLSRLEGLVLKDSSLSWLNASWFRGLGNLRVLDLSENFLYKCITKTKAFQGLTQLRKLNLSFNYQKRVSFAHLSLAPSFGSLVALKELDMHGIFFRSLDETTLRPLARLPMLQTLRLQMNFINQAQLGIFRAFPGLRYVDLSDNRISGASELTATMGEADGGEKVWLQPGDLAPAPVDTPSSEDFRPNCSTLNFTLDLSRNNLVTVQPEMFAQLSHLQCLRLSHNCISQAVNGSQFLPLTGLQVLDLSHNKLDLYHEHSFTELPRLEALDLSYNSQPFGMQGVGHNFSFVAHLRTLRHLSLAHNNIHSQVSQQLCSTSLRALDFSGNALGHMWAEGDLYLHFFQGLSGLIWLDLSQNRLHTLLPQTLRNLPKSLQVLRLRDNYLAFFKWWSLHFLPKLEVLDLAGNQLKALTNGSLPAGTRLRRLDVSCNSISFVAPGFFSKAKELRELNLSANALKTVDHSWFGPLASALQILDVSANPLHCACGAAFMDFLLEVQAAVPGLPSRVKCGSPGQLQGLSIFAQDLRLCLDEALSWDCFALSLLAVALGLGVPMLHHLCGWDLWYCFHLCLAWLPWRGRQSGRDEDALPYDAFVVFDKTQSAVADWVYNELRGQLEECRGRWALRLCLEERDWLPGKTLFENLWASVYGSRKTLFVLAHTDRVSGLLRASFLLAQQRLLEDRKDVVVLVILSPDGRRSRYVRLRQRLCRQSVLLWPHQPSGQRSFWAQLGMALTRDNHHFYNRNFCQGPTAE
The assay can be described thus: TLR9 inhibition reporter assay (HEK-Blue cells, SEAP reporter). Conditions: HEK-Blue cells overexpressing human TLR9; stimulated with ODN2006 5 nM; SEAP after 22 hour incubation. How it is done:
(§1) TLR7/8/9 Inhibition Reporter Assays
(§2) HEK-Blue™-cells (Invivogen) overexpressing human TLR7, TLR8 or TLR9 receptors were used for screening inhibitors of these receptors using an inducible SEAP (secreted embryonic alkaline phosphatase) reporter gene under the control of the IFN-β minimal promoter fused to five NF-κB and AP-1-binding sites. Briefly, cells are seeded into Greiner 384 well plates (15000 cells per well for TLR7, 20,000 for TLR8 and 25,000 for TLR9) and then treated with test compounds in DMSO to yield a final dose response concentration range of 0.05 nM-50 μM. After a 30 minute compound pre-treatment at room temperature, the cells are then stimulated with a TLR7 ligand (gardiquimod at a final concentration of 7.5 μM), TLR8 ligand (R848 at a final concentration of 15.9 μM) or TLR9 ligand (ODN2006 at a final concentration of 5 nM) to activate NF-κB and AP-1 which induce the production of SEAP. After a 22 hour incubation at 37° C., 5% CO2, SEAP levels are determined with the addition of HEK-Blue™ Detection reagent (Invivogen), a cell culture medium that allows for detection of SEAP, according to manufacturer's specifications. The percent inhibition is determined as the % reduction in the HEK-Blue signal present in wells treated with agonist plus DMSO alone compared to wells treated with a known inhibitor.

A further assay deals with T2, human TLR7 (Homo sapiens, UniProt Q9NYK1).
T2 construct: host or cells: HEK-Blue cells (HEK293-derived reporter line)
T2 sequence (Q9NYK1 27-1049): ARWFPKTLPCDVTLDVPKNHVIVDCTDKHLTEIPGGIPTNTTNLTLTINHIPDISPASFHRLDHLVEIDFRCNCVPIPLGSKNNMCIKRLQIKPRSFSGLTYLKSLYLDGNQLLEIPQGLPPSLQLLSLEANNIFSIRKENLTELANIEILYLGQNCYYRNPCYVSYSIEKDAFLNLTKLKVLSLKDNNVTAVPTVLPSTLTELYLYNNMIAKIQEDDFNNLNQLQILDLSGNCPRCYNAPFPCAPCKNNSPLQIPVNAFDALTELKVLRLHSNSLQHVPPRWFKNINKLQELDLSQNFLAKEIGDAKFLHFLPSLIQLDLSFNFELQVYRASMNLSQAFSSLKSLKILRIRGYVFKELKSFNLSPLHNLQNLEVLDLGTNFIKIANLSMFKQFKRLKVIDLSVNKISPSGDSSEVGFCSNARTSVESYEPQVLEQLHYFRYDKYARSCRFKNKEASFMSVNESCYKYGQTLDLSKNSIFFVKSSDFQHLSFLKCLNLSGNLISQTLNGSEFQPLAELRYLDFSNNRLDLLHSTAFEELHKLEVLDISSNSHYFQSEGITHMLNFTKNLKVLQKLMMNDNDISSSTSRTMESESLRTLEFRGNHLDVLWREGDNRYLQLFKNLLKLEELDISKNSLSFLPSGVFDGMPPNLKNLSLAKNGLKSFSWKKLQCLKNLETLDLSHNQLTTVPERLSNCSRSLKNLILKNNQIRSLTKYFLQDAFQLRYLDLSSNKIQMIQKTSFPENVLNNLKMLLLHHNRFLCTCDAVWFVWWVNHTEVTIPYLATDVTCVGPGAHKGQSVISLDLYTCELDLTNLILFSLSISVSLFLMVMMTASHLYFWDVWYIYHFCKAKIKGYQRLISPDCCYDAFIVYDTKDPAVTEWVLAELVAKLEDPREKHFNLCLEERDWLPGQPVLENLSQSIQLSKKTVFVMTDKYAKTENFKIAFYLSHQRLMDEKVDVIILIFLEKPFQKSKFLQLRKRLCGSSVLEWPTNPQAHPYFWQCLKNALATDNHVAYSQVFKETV
The assay can be described thus: TLR7 inhibition reporter assay (HEK-Blue cells, SEAP reporter). Conditions: HEK-Blue cells overexpressing human TLR7; stimulated with gardiquimod 7.5 μM; SEAP after 22 hour incubation. How it is done: as §1, §2
In general terms: In a reporter assay the amount or activity of a reporter protein is the signal.

The target of a further assay is T3, human TLR8 (Homo sapiens, UniProt Q9NR97).
T3 construct: host or cells: HEK-Blue cells (HEK293-derived reporter line)
T3 sequence (Q9NR97 27-1041): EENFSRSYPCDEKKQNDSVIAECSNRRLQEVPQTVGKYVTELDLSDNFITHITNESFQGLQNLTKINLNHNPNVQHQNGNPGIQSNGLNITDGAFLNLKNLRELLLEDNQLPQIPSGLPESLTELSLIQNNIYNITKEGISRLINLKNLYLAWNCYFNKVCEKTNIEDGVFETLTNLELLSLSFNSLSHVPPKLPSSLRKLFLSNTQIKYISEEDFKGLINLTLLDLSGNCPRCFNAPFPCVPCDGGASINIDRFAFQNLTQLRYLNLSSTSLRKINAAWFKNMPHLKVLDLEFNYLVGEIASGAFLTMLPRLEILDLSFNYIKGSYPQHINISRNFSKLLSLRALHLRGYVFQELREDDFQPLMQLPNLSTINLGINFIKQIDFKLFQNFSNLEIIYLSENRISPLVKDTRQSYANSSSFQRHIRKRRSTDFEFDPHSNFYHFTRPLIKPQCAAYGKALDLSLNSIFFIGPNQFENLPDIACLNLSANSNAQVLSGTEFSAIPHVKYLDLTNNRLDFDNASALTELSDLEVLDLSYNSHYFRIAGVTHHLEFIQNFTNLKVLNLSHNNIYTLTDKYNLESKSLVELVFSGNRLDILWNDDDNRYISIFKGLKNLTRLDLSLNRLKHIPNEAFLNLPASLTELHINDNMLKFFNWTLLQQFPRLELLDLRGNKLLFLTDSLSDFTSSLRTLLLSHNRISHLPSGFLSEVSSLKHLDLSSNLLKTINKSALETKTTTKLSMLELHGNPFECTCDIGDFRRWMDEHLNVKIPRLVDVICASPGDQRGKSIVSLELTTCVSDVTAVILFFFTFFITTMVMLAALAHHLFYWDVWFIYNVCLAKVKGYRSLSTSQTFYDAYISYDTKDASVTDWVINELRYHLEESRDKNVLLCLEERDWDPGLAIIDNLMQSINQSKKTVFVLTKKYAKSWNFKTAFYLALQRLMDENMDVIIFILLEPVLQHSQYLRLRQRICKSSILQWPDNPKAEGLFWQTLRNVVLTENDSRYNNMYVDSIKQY
Kind of assay: TLR8 inhibition reporter assay (HEK-Blue cells, SEAP reporter). Conditions: HEK-Blue cells overexpressing human TLR8; stimulated with R848 15.9 μM; SEAP after 22 hour incubation. How it is done: as §1, §2

For the molecule `CC(C)N1CCN(c2ccc(-c3cnc4cc(-c5ccc(S(C)(=O)=O)cc5F)n(C)c4c3)cc2)CC1` [Example 41], the IC50 is 0.157 µM against human TLR9, 10 µM against human TLR7 and 1.6 µM on human TLR8.
Turning to `COc1cc(-c2cc3ncc(-c4ccc(N5CCN(C(C)C)CC5)cc4)cc3n2C)ccc1C#N` [Example 38, 4-[6-[4-(4-isopropylpiperazin-1-yl)phenyl]-1-methyl-pyrrolo[3,2-b]pyridin-2-yl]-2-methoxy-benzonitrile], the figures for the IC50 against human TLR9, at human TLR7 and against human TLR8 were 0.505 µM, over 25 µM and over 25 µM, respectively.
For `CC(C)N1CCN(c2ccc(-c3cc4nc(-c5ccc(S(C)(=O)=O)cc5)cc-4n(C)c3)cc2)CC1` [Example 3, 6-(4-(4-isopropylpiperazin-1-yl)phenyl)-4-methyl-2-(4-(methylsulfonyl)phenyl)-4H-pyrrolo[3,2-b]pyridine], the 50% inhibitory concentration (IC50) at human TLR9 worked out at 0.018 µM; on human TLR7, 9.7 µM; against human TLR8 it was 11.1 µM.
With `COc1ccc(-c2cc3ncc(-c4ccc(N5CCN(C(C)C)CC5)cc4)cc3n2C)cc1OC` [Example 1, 2-(3,4-Dimethoxyphenyl)-6-(4-(4-isopropylpiperazin-1-yl)phenyl)-1-methyl-1H-pyrrolo[3,2-b]pyridine], the IC50 stood at 0.094 µM against human TLR9, 7 µM against human TLR7 and 7.2 µM at human TLR8.
Turning to `Cn1c(-c2ccc(S(C)(=O)=O)cc2)cc2ncc(-c3ccc(CN4CCN(CC(C)(C)O)CC4)cc3)cc21` [Example 21], the IC50 at human TLR9 turned out to be 0.206 µM; at human TLR7 it was 9.6 µM; against human TLR8 it was 8.1 µM.
With `CC(C)N1CCN(Cc2ccc(-c3cnc4cc(-c5ccc(S(C)(=O)=O)cc5)n(C)c4c3)cc2)CC1` [Example 23], the IC50 against human TLR9 was 0.069 µM; at human TLR7, over 50 µM; on human TLR8, 23.2 µM.
The like results for `Cn1c(-c2ccc(S(C)(=O)=O)cc2)cc2ncc(-c3ccc(CN4CCN(CCC(C)(C)O)CC4)cc3)cc21` [Example 19, 2-Methyl-4-(4-(4-(1-methyl-2-(4-(methylsulfonyl)phenyl)-1H-pyrrolo[3,2-b]pyridin-6-yl)benzyl)piperazin-1-yl)butan-2-ol] were, in that order, 0.663 µM, 7.9 µM and 4.3 µM.
`Cn1c(-c2ccc(S(C)(=O)=O)cc2F)cc2ncc(-c3ccc(N4CCN5CCCC5C4)cc3)cc21` (stereo not drawn) [Example 42]: the IC50 was 0.436 µM at human TLR9, over 50 µM against human TLR7 and 2.8 µM against human TLR8.
`CC(C)N1CCN(c2ccc(-c3cnc4cc(-c5ccc(S(C)(=O)=O)cc5)n(C)c4c3)cc2)CC1` [Example 2, 6-(4-(4-Isopropylpiperazin-1-yl)phenyl)-1-methyl-2-(4-(methylsulfonyl)phenyl)-1H-pyrrolo[3,2-b]pyridine]: the IC50 was 0.139 µM at human TLR9, 2.7 µM at human TLR7 and 7.6 µM on human TLR8.
For `CC(C)N1CCN(c2ccc(-c3cnc4cc(-c5ccc(S(C)(=O)=O)cc5)n(C)c4c3)cc2)[C@H](C)C1` [Example 28], the IC50 against human TLR9 came out at 0.236 µM; against human TLR7, 3.2 µM; at human TLR8, 5 µM.
In the case of `CC(C)N1C2CCC1CN(c1ccc(-c3cnc4cc(-c5ccc(S(C)(=O)=O)cc5F)n(C)c4c3)cc1)C2` [Example 43], the values for the IC50 at human TLR9, against human TLR7 and against human TLR8 were 0.292 µM, over 50 µM and 7.8 µM, respectively.
Consider `CC(C)N1C[C@H](C)N(c2ccc(-c3cnc4cc(-c5ccc(S(C)(=O)=O)cc5)n(C)c4c3)cc2)[C@@H](C)C1` [Example 31], for which the IC50 turned out to be 0.48 µM against human TLR9, 2.5 µM against human TLR7 and 4.5 µM at human TLR8.
With `CC(C)CN1[C@@H]2CC[C@H]1C[C@@H](N1CCC(c3cnc4cc(-c5ccc(S(=O)(=O)C6CC6)cc5)n(C)c4c3)CC1)C2` [Example 37, 2-(4-cyclopropylsulfonylphenyl)-1-methyl-6-[1-[rac-(1S,5R)-8-isobutyl-8-azabicyclo[3.2.1]octan-3-yl]-4-piperidyl]pyrrolo[3,2-b]pyridine], the IC50 on human TLR9 was 0.41 µM; against human TLR7, 1.1 µM; on human TLR8, over 50 µM.

What is called IC50 is the concentration that gives 50% inhibition.
